In patent publication US7501430B2 (ArQule, Inc., priority 2006, dated 2009):
pIC50: −log10 of the molar value. Like-named read-outs stand apart in the source and are kept apart here.

Biological target: T1, mutant B-RAF (Homo sapiens, UniProt P15056, V600E)
T1 construct: purchased Upstate (Charlottesville, Va.)
Assay: RAF biochemical assay (MEK-1 phosphorylation, anti-phospho MEK1/2 detection)
Conditions: for inhibition at 10 µM: read-out: Mutant B-RAF % inhibition
Experimental: Materials: The RAF kinases and the anti-phospho MEK1/2 antibody were from Upstate (Charlottesville, Va.). The RAF substrate used was full length N-terminal GST-MEK-1, which was expressed in E. coli and purified in-house by HPLC. All proteins were aliquoted and stored at −80° C.
Compounds were serially diluted in assay buffer containing 1% DMSO and 20 μL of test compound at a concentration 3-fold more than the final concentration, and were added to a polypropylene V-well reaction plate. Vehicle control wells received buffer only with DMSO at equivalent concentrations to the test wells. […] These reaction plates were incubated at room temperature for 30 minutes. Capture of MEK-1 was initiated by transferring 50 μl of the reaction mixture to a Nunc Maxisorp™ microplate that is designed for non-specific protein capture. After 30 minute capture of MEK-1 at room temperature, this plate was washed with TBST (6×200 μL/well) to fully terminate the reaction. The plate was then blocked for 1 hour by the addition of 100 μl/well of Superblock™ in phosphate buffered saline (PBS) blocking reagent. Plate was again washed with TBST (6 times with 200 μL/well), followed by the addition of 70 μL/well of Upstate anti-phospho MEK 1/2 diluted 1:1000 in Pierce Superblock (PBS). After a 60 minute incubation, this plate was washed with TBST (6 times with 200 μL/well), and 70 μL of the secondary antibody (Pierce Alkaline Phosphatase tagged goat anti-rabbit) prepared at 1:4000 in Superblock, were added. After a 45 minute incubation at room temperature, the wells of the microplate were washed with TBST (6 times with 200 μL/well), and thereafter 100 μl/well of Attophos™ fluorescent alkaline phosphatase substrate was added according to the manufacturer's instructions (JBL Scientific).

T1 sequence (P15056 whole entry V600E): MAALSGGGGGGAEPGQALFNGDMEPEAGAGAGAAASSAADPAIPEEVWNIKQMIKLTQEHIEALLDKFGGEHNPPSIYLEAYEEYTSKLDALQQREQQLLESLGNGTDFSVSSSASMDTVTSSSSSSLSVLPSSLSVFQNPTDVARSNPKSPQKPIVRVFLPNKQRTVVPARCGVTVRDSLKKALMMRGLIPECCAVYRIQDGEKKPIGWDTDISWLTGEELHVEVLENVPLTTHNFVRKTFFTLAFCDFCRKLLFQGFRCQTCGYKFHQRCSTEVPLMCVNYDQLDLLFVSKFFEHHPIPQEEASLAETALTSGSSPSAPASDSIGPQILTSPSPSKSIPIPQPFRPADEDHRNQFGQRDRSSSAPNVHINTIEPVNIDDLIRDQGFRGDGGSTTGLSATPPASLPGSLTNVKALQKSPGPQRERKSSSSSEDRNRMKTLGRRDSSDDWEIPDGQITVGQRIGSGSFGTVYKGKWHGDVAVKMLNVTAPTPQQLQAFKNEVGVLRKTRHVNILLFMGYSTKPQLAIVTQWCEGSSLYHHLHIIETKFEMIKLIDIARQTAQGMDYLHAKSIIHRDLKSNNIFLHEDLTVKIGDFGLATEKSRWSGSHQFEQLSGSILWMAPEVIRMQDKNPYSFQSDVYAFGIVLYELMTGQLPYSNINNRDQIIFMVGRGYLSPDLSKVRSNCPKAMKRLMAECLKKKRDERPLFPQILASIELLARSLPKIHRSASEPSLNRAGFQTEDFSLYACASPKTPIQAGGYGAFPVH

SMILES | pIC50 (read-out: Mutant B-RAF IC50) | further results
O=C(NCc1ccc(F)cc1)N1CCC(Nc2nccc(-c3c(-c4ccc(F)cc4)nc4occn34)n2)CC1 [Example 194, N-(4-fluorobenzyl)-4-({4-[6-(4-fluorophenyl)imidazo[2,1-b][1,3]oxazol-5-yl]pyrimidin-2-yl}amino)piperidine-1-carboxamide] |  | inhibition at 10 µM (@ 10 uM): 55%
COc1cccc(-c2nc3sccn3c2-c2ccnc(N[C@@H]3CCCN(S(=O)(=O)c4cccc(OC)c4)C3)n2)c1 [Example 142, 4-[6-(3-methoxyphenyl)imidazo[2,1-b][1,3]thiazol-5-yl]-N-{(3R)-1-[(3-methoxyphenyl)sulfonyl]piperidin-3-yl}pyrimidin-2-amine] |  | inhibition at 10 µM (@ 10 uM): 56%
N[C@@H](CCC(=O)O)C(=O)N1CCC(Nc2nccc(-c3c(-c4ccc(F)cc4)nc4occn34)n2)CC1 [Example 196, (4S)-4-amino-5-[4-({4-[6-(4-fluorophenyl)imidazo[2,1-b][1,3]oxazol-5-yl]pyrimidin-2-yl}amino)piperidin-1-yl]-5-oxopentanoic acid] | 5.48 | 
O=C([C@@H]1CCCN1)N1CCC(Nc2nccc(-c3c(-c4ccc(F)cc4)nc4occn34)n2)CC1 [Example 192, 4-[6-(4-fluorophenyl)imidazo[2,1-b][1,3]oxazol-5-yl]-N-(1-L-prolylpiperidin-4-yl)pyrimidin-2-amine] | 5.84 | 
CC(C)CC(=O)N1CCC(Nc2nccc(-c3c(-c4ccc(F)cc4)nc4occn34)n2)CC1 [Example 180, 4-[6-(4-fluorophenyl)imidazo[2,1-b][1,3]oxazol-5-yl]-N-[1-(3-methylbutanoyl)piperidin-4-yl]pyrimidin-2-amine] | 5.69 | 
O=C(NCC1CCCCC1)N1CCC[C@@H](Nc2nccc(-c3c(-c4ccc(F)cc4)nc4occn34)n2)C1 [Example 68, (3R)-N-(cyclohexylmethyl)-3-({4-[6-(4-fluorophenyl)imi-dazo[2,1-b][1,3]oxazol-5-yl]pyrimidin-2-yl}amino)piperidine-1-carboxamide] |  | inhibition at 10 µM: 42%
Cc1ccnc(SCC(=O)N2CCC(Nc3nccc(-c4c(-c5ccc(F)cc5)nc5occn45)n3)CC2)n1 [Example 215, 4-[6-(4-fluorophenyl)imidazo[2,1-b][1,3]oxazol-5-yl]-N-(1-{[(4-methylpyrimidin-2-yl)thio]acetyl}piperidin-4-yl)pyrimidin-2-amine] |  | inhibition at 10 µM (@ 10 uM): 40%
O=C(NCc1ccco1)N1CCC[C@@H](Nc2nccc(-c3c(-c4ccc(F)c(F)c4)nc4sccn34)n2)C1 [Example 88, (3R)-3-({4-[6-(3,4-difluorophenyl)imidazo[2,1-b][1,3]thiazol-5-yl]pyrimidin-2-yl}amino)-N-(2-furylmethyl)piperidine-1-carboxamide] |  | inhibition at 10 µM (@ 10 uM): 54%
O=C(NCc1ccco1)N1CCC[C@@H](Nc2nccc(-c3c(-c4ccc(F)cc4)nc4occn34)n2)C1 [Example 25, (3R)-3-({4-[6-(4-fluorophenyl)imidazo[2,1-b][1,3]oxazol-5-yl]pyrimidin-2-yl}amino)-N-(2-furylmethyl)piperidine-1-carboxamide] |  | inhibition at 10 µM (@ 10 uM): 35%
c1ccc(-c2ccc(-c3nc4sccn4c3-c3ccnc(NC4CCNCC4)n3)cc2)cc1 [Example 250, 4-(6-biphenyl-4-ylimidazo[2,1-b][1,3]thiazol-5-yl)-N-piperidin-4-ylpyrimidin-2-amine] |  | inhibition at 3 µM (@ 3 uM): 2%
CCC(=O)N1CCC(Nc2nccc(-c3c(-c4ccc(F)cc4)nc4occn34)n2)CC1 [Example 188, 4-[6-(4-fluorophenyl)imidazo[2,1-b][1,3]oxazol-5-yl]-N-(1-propionylpiperidin-4-yl)pyrimidin-2-amine] | 5.82 | 
CCNC(=O)N1CCC(Nc2nccc(-c3c(-c4ccc(F)c(F)c4)nc4sccn34)n2)CC1 [Example 218, 4-({4-[6-(3,4-difluorophenyl)imidazo[2,1-b][1,3]thiazol-5-yl]pyrimidin-2-yl}amino)-N-ethylpiperidine-1-carboxamide] | 5.91 | 
O=C(NS(=O)(=O)c1ccc(Cl)cc1)N1CCC(Nc2nccc(-c3c(-c4cccc(O)c4)nc4occn34)n2)CC1 [Example 323, N-[(4-chlorophenyl)sulfonyl]-4-({4-[6-(3-hydroxyphenyl)imidazo[2,1-b][1,3]oxazol-5-yl]pyrimidin-2-yl}amino)piperidine-1-carboxamide] | 5.91 | 
O=S(=O)(c1ccc(Oc2ccccc2)cc1)N1CCC[C@@H](Nc2nccc(-c3c(-c4ccc(F)cc4)nc4occn34)n2)C1 [Example 60, 4-[6-(4-fluorophenyl)imi-dazo[2,1-b][1,3]oxazol-5-yl]-N-{(3R)-1-[(4-phenoxy-phenyl)sulfonyl]piperidin-3-yl}pyrimidin-2-amine] |  | inhibition at 10 µM: 15%
CC(C)(N)C(=O)N1CCC(Nc2nccc(-c3c(-c4ccc(F)cc4)nc4occn34)n2)CC1 [Example 191, N-[1-(2-amino-2-methylpropanoyl)piperidin-4-yl]-4-[6-(4-fluorophenyl)imi-dazo[2,1-b][1,3]oxazol-5-yl]pyrimidin-2-amine] |  | pIC50: 5.42
NS(=O)(=O)Oc1cccc(-c2nc3occn3c2-c2ccnc(N[C@@H]3CCCN(S(=O)(=O)c4ccc(Cl)cc4)C3)n2)c1 [Example 380, 3-{5-[2-({(3R)-1-[(4-chlorophenyl)sulfonyl]piperidin-3-yl}amino)pyrimidin-4-yl]imidazo[2,1-b][1,3]oxazol-6-yl}phenyl sulfamate] | 5.80 | 
Oc1cccc(-c2nc3occn3c2-c2ccnc(N[C@@H]3CCCNC3)n2)c1 [Example 333, 3-(5-{2-[(3R)-piperidin-3-ylamino]pyrimidin-4-yl}imidazo[2,1-b][1,3]oxazol-6-yl}phenol] | 6.04 | 

Second part, led by results:

pIC50 (read-out: Mutant B-RAF IC50) | SMILES | further results
6.17 | O=S(=O)(c1ccc(F)cc1)N1CCC(Nc2nccc(-c3c(-c4ccc(F)cc4)nc4occn34)n2)CC1 [Example 157, 4-[6-(4-fluorophenyl)imidazo[2,1-b][1,3]oxazol-5-yl]-N-{1-[(4-fluorophenyl)sulfonyl]piperidin-4-yl}pyrimidin-2-amine] | 
6.73 | COc1ccc(S(=O)(=O)N2CCC[C@@H](Nc3nccc(-c4c(-c5cccc(OC)c5)nc5sccn45)n3)C2)cc1 [Example 149, 4-[6-(3-methoxyphenyl)imidazo[2,1-b][1,3]thiazol-5-yl]-N-{(3R)-1-[(4-methoxyphenyl)sulfonyl]piperidin-3-yl}pyrimidin-2-amine] | 
7.29 | Cc1cn2c(-c3ccnc(NC4CCN(S(=O)(=O)c5ccc(F)cc5)CC4)n3)c(-c3ccc(F)cc3)nc2s1 [Example 219, 4-[6-(4-fluorophenyl)-2-methylimidazo[2,1-b][1,3]thiazol-5-yl]-N-{1-[(4-fluorophenyl)sulfonyl]piperidin-4-yl}pyrimidin-2-amine] | 
5.80 | O=S(=O)(c1ccc(Cl)cc1)N1CC[C@@H](Nc2nccc(-c3c(-c4cccc(O)c4)nc4sccn34)n2)C1 [Example 283, 3-{5-[2-({(3R)-1-[(4-chlorophenyl)sulfonyl]pyrro-lidin-3-yl}amino)pyrimidin-4-yl]imidazo[2,1-b][1,3]thiazol-6-yl}phenol] | 
6.94 | COc1ccc(S(=O)(=O)N2CCC(Nc3nccc(-c4c(-c5ccc(F)cc5)nc5occn45)n3)CC2)cc1 [Example 200, 4-[6-(4-fluorophenyl)imidazo[2,1-b][1,3]oxazol-5-yl]-N-{1-[(4-methoxyphenyl)sulfonyl]piperidin-4-yl}pyrimidin-2-amine] | 
6.16 | COc1ccc(-c2nc3sccn3c2-c2ccnc(NC3CCCN(S(=O)(=O)c4ccc(Cl)cc4)C3)n2)cc1OC (stereo in doubt) [Example 135, N-{(3R)-1-[(4-chlorophenyl)sulfonyl]piperidin-3-yl}-4-[6-(3,4-dimethoxyphenyl)imidazo[2,1-b][1,3]thiazol-5-yl]pyrimidin-2-amine] | 
< 5.52 | O=S(=O)(c1ccc(Cl)cc1)N1CCC(Nc2nccc(-c3c(-c4ccc(F)c(F)c4)nc4sccn34)n2)CC1 [Example 265, N-{1-[(4-chlorophenyl)sulfonyl]piperidin-4-yl}-4-[6-(3,4-difluorophenyl)imidazo[2,1-b][1,3]thiazol-5-yl]pyrimidin-2-amine] | 
6.98 | COc1cc(-c2nc3sccn3c2-c2ccnc(N[C@@H]3CCCN(S(=O)(=O)c4ccc(Cl)cc4)C3)n2)ccc1F [Example 348, N-{(3R)-1-[(4-chlorophenyl)sulfonyl]piperidin-3-yl}-4-[6-(4-fluoro-3-methoxyphenyl)imidazo[2,1-b][1,3]thiazol-5-yl]pyrimidin-2-amine] | 
< 5.30 | O=S(=O)(c1ccc(Cl)cc1)N1CCC[C@@H](Nc2nccc(-c3c(-c4ccc(O)cc4)nc4sccn34)n2)C1 [Example 110, 4-{5-[2-({(3R)-1-[(4-chlorophenyl)sulfonyl]piperidin-3-yl}amino)pyrimidin-4-yl]imidazo[2,1-b][1,3]thiazol-6-yl}phenol] | 
< 5.00 | O=S(=O)(c1ccc(Oc2ccccc2)cc1)N1CCC(Nc2nccc(-c3c(-c4ccc(F)cc4)nc4occn34)n2)CC1 [Example 238, 4-[6-(4-fluorophenyl)imidazo[2,1-b][1,3]oxazol-5-yl]-N-{1-[(4-phenoxyphenyl)sulfonyl]piper-idin-4-yl}pyrimidin-2-amine] | 
